Assay results as given in US20080214556A1 (priority 2007, published 2008).
Like-named read-outs stand apart in the source and are kept apart here.

Experiments:
[1] = tested on: patients with non-ST elevation acute coronary syndrome; test: MERLIN-TIMI 36: HbA1c and hyperglycemia; assay type: in vivo, human
Source text: The proportion of patients in the MERLIN-TIMI 36 study with HbA1C≧7% is shown in Table 28 below (and see FIG. 15).
The proportion of patients with HbA1C≧7% (with diabetes or no diabetes) at various times during the MERLIN-TIMI 36 study is shown in Table 29 below (and FIG. 16).
HbA1c data are reported as least-square means. Patients categorized as “diabetic” had been diagnosed as diabetic before or at the time of randomization. Patients categorized as “no diabetes” had not been diagnosed as diabetic before or at the time of randomization. Some patients characterized as “no diabetes” may have been diagnosed as “diabetic” during the trial; however, these patients are still listed in the “no diabetes” category in FIG. 4B.

[2] = tested on: patients with non-ST elevation acute coronary syndrome; test: MERLIN-TIMI 36: Seattle Angina Questionnaire scores at 4 months; assay type: in vivo, human; settings: ITT, N 2558
Source text: The MERLIN-TIMI 36 secondary efficacy endpoint (ITT) Seattle Angina Questionnaire scores at 4 months for anginal frequency scale are shown in Table 16 below, and scores for physical limitation scale are shown in Table 17 below.

[3] = tested on: patients with non-ST elevation acute coronary syndrome; test: MERLIN-TIMI 36: efficacy endpoints (CV death, MI, recurrent ischemia, failure of therapy); assay type: in vivo, human
Source text: The MERLIN-TIMI 36 primary efficacy endpoint (ITT) time from randomization to first occurrence of cardiovascular death, myocardial infarction, or recurrent ischemia data is shown in Table 11 below (and FIGS. 4 and 5).
The MERLIN-TIMI 36 major secondary efficacy endpoint (ITT) time from randomization to first occurrence of cardiovascular death, myocardial infarction, or severe recurrent ischemia data is shown in Table 12 below (and FIGS. 6 and 7).
The secondary efficacy endpoint time from randomization to failure of therapy (cardiovascular death, […], recurrent ischemia, positive Holter for ischemia, New/Worsening heart failure, or early+ETT) data from MERLIN-TIMI 36 is shown in Table 14 below (and FIGS. 8 and 9).
The secondary efficacy endpoint (ITT) incidence at 30 days of cardiovascular death, myocardial infarction, severe recurrent ischemia, or positive Holter for ischemia data from MERLIN-TIMI 36 is shown in Table 15 below.
The data for time from randomization to first occurrence of cardiovascular death or myocardial infarction from MERLIN-TIMI 36 is shown in Table 20 below. For relative risk of CV death, MI, or recurrent ischemia by subgroup, see FIG. 10. For relative risk of CV death, MI, or severe recurrent ischemia by subgroup, see FIG. 11. For relative risks of failure of therapy by subgroup, see FIG. 12.

[4] = tested on: patients with non-ST elevation acute coronary syndrome; test: MERLIN-TIMI 36: adverse events; assay type: in vivo, human; settings: n = 3268
[5] = tested on: patients with non-ST elevation acute coronary syndrome; test: MERLIN-TIMI 36: ischemia on Holter / continuous ECG (CECG) monitoring; assay type: in vivo, human; settings: ranolazine vs placebo
Experimental: At randomization, 6355 patients (99%) had 3-lead CECG monitoring initiated (median duration 6.9 days). The primary CECG endpoint was the rate of ST dep≧1 mm from baseline lasting ≧1 minute with heart rate at onset <100 bpm. Exploratory analyses using ST dep≧0.5 mm were also performed.

[6] = tested on: patients with non-ST elevation acute coronary syndrome; test: MERLIN-TIMI 36: arrhythmias on 7 day continuous ECG (Holter) recording; assay type: in vivo, human
Experimental: The safety endpoint data for incidence of clinically significant arrhythmias during 7 day Holter monitoring from MERLIN-TIMI 36 is shown in Table 24 below.
Continuous ECG (Holter) recording was performed for the first 7 days after randomization. Because of the known prolongation of the QT interval with ranolazine, analyses of a prespecified set of arrhythmias were a major objective of the trial. All arrhythmias were evaluated in the TIMI ECG Core Laboratory by cardiologists blinded to treatment and outcomes.
Continuous ECG (cECG or Holter) recording was performed for the first 7 days after randomization. Prespecified arrhythmia analyses were evaluated by a core laboratory blinded to treatment and outcomes.

[7] = tested on: patients with non-ST elevation acute coronary syndrome
[8] = patients with DM treated with ranolazine
[9] = ITT, n = 3279, major secondary efficacy endpoint
[10] = ITT, n = 3279, primary efficacy endpoint
[11] = placebo vs ranolazine, cECG monitoring

## COc1ccccc1OCC(O)CN1CCN(CC(=O)Nc2c(C)cccc2C)CC1 (racemic) [Ranolazine, (±)—N-(2,6-dimethylphenyl)-4-[2-hydroxy-3-(2-methoxyphenoxy)-propyl]-1-piperazineacetamide]
[1]; Baseline (In-Hospital visit prior to randomization), all patients dosed
  Patients with HbA1C ≧ 7% (%): 24%
[1]; Diabetes at enrollment, n = 1098, Baseline
  Patients with HbA1C ≧ 7% (%): 57%
[1]; Diabetes at enrollment, n = 1098, Final Visit
  Patients with HbA1C ≧ 7% (%): 42%
[1]; Diabetes at enrollment, n = 1098, Month 4
  Patients with HbA1C ≧ 7% (%): 41%
[1]; Diabetes at enrollment, n = 1098, Month 8
  Patients with HbA1C ≧ 7% (%): 44%
[1]; Diabetes at enrollment, n = 1098, Month 16
  Patients with HbA1C ≧ 7% (%): 48%
[1]; Final Visit, all patients dosed
  Patients with HbA1C ≧ 7% (%): 17%
[1]; Month 4, all patients dosed
  Patients with HbA1C ≧ 7% (%): 17%
[1]; Month 8, all patients dosed
  Patients with HbA1C ≧ 7% (%): 18%
[1]; Month 16, all patients dosed
  Patients with HbA1C ≧ 7% (%): 20%
[1]; No Diabetes at enrollment, n = 2170, Baseline
  Patients with HbA1C ≧ 7% (%): 6%
[1]; No Diabetes at enrollment, n = 2170, Final Visit
  Patients with HbA1C ≧ 7% (%): 6%
[1]; No Diabetes at enrollment, n = 2170, Month 4
  Patients with HbA1C ≧ 7% (%): 5%
[1]; No Diabetes at enrollment, n = 2170, Month 8
  Patients with HbA1C ≧ 7% (%): 6%
[1]; No Diabetes at enrollment, n = 2170, Month 16
  Patients with HbA1C ≧ 7% (%): 7%
[1]; at 4 months, 4306 patients with serial measurements, least-square means
  HbA1c: 5.9%
[1]; diabetic patients, ranolazine vs placebo
  HR for worsening of hyperglycemia: 0.63
[1]; [8]
  HbA1c after decline (declined to): 6.8
  HbA1c before decline (declined from): 7.2
[1]; patients with DM, at 4 months
  Patients achieving HbA1c<7%: 59%
[1]; patients without DM, ranolazine vs placebo
  HR for new fasting glucose >110 mg/dL or HbA1c≧6%: 0.68
[2]
  Seattle Angina Questionnaire, Anginal Frequency Scale: Median: 100
[3]; 30 days, ITT
  Incidence (Kaplan-Meier estimate) of CV death or MI: 4.2%
  Incidence (Kaplan-Meier estimate) of CV death, MI, or recurrent ischemia: 7.7%
  Incidence (Kaplan-Meier estimate) of CV death, MI, or severe recurrent ischemia: 7.5%
[3]; 60 days, ITT
  Incidence (Kaplan-Meier estimate) of CV death or MI: 5.3%
  Incidence (Kaplan-Meier estimate) of CV death, MI, or recurrent ischemia: 9.9%
  Incidence (Kaplan-Meier estimate) of CV death, MI, or severe recurrent ischemia: 9.4%
[3]; ITT, n = 3279, CV death or MI endpoint
  Endpoint-defining events: CV death (%): 30.5%
[3]; ITT, n = 3279, additional efficacy endpoint
  Pts with events: first occurrence of CV death or MI: 338
[3]; [9]
  Endpoint-defining events: CV death (%): 14.6%
  Pts with events: first occurrence of CV death, MI, or severe recurrent ischemia: 602
[3]; [10]
  Endpoint-defining events: CV death (%): 12.5%
  Pts with events: first occurrence of CV death, MI, or recurrent ischemia: 695
[3]; incidence at 30 days, ITT, n = 3279
  Pts with events: CV death, MI, severe RI, or positive Holter for ischemia (%): 23%
[3]; ranolazine group, Example 7
  Primary endpoint occurred in (% of patients): 21.8%
[3]; ranolazine vs placebo
  HR for cardiovascular death or MI: 0.99
  HR for recurrent ischemia: 0.87
  HR for the primary endpoint: 0.92
[3]; ranolazine vs placebo, ITT, major secondary efficacy endpoint
  Relative risk (SE): CV death, MI, or severe recurrent ischemia: 0.982 (0.06)
[3]; women, ranolazine vs placebo
  HR for worsening angina: 0.61
[4]; AE summary > 4% incidence
  Adverse event: Angina pectoris (%): (8%)
  Adverse event: Angina unstable (%): (10%)
  Adverse event: Asthenia (%): (5%)
  Adverse event: Cardiac failure (%): (5%)
  Adverse event: Chest pain (%): (11%)
  Adverse event: Constipation (%): (9%)
  Adverse event: Dizziness (%): (13%)
  Adverse event: Fatigue (%): (4%)
  Adverse event: Headache (%): (7%)
  Adverse event: Hypotension (%): (5%)
  Adverse event: Nausea (%): (9%)
[4]; SAEs ≧ 1% incidence
  Serious adverse event: ACS (%): (2%)
  Serious adverse event: Acute MI (%): (3%)
  Serious adverse event: Angina pectoris (%): (4%)
  Serious adverse event: Angina unstable (%): (8%)
  Serious adverse event: Atrial fibrillation (%): (1%)
  Serious adverse event: Cardiac failure (%): (4%)
  Serious adverse event: Cardiac failure congestive (%): (1%)
  Serious adverse event: Chest pain (%): (2%)
  Serious adverse event: MI (%): (4%)
  Serious adverse event: Syncope (%): (1%)
[4]; Safety - All Patients Dosed
  Patients early prematurely withdrawn due to AEs (%): (13%)
  Patients with AEs (%): (76%)
  Patients with AEs leading to death (%): (5%)
  Patients with serious AEs (SAEs) (%): (34%)
  Patients with study drug-related AEs (%): (30%)
[5]; >72 hours after randomization
  RR for primary CECG endpoint events: 0.86
[5]; lower ischemic threshold of 0.5 mm
  RR for CECG ischemic events: 0.91
[6]; All Patients Dosed, n = 3268
  Any Clinically Significant Arrhythmia during 7 Day Holter (%): 71.3%
  Bradycardic episode during 7 Day Holter (%): 38.5%
  New onset atrial fibrillation during 7 Day Holter (%): 1.7%
[6]; Any SVT >= 120 bpm, n = 3268
  Supraventricular tachycardia during 7 Day Holter (%): 43.2%
[6]; Any VT >= 100 bpm >= 3 beats, n = 3268
  Ventricular tachycardia during 7 Day Holter (%): 29.0%
[6]; Holter, first 7 days, n = 3162
  Pause > 3 secs (%): (3.1) %
  VT >= 8 beats (<30 secs) (%): (5.5) %
[6]; cECG first 7 days, Example 9
  New-onset atrial fibrillation (% of patients): 1.7%
[6]; cECG monitoring
  Polymorphic VT >= 8 beats (%): (1.2) %
  Sustained VT (>=30 sec) (%): (0.44) %
  VT ≧ 8 beats (<30 sec) (%): (5.3) %
[6]; cECG monitoring, listed as ranolazine
  VT ≧ 8 beats (<30 sec) (%): 5.3%
[6]; [11]
  Polymorphic VT >= 8 beats: Δ (%): −21%
  Sustained VT (>=30 sec): Δ: 0
  VT ≧ 3 beats (≧100 b/m): Δ (%): −17%
  VT ≧ 4 beats (≧100 b/m): Δ (%): −30%
  VT ≧ 8 beats (<30 sec): Δ (%): −37%
[7]; 30 days
  Incidence (Kaplan-Meier estimate) of death from any cause: 1.8%
  Incidence (Kaplan-Meier estimate) of death or CV hospitalization: 9.2%
[7]; 60 days
  Incidence (Kaplan-Meier estimate) of death from any cause: 2.2%
  Incidence (Kaplan-Meier estimate) of death or CV hospitalization: 15.0%
[7]; 180 days
  Incidence (Kaplan-Meier estimate) of death from any cause: 3.4%
[7]; 360 days
  Incidence (Kaplan-Meier estimate) of death from any cause: 5.3%
[7]; 540 days
  Incidence (Kaplan-Meier estimate) of death from any cause: 7.0%
[7]; All Patients Dosed, n = 3268
  Pts with events: death from any cause: 172
  Pts with events: first occurrence of death or CV hospitalization: 1037
[7]; death or CV hospitalization endpoint, n = 3268
  Endpoint-defining events: Death (%): 10.7%
[7]; human, in vivo
  Endpoint-defining events: CV hospitalization (%): 89.3%
  Symptomatic documented arrhythmias (% of patients): 3.0%
[7]; ranolazine vs placebo
  HR for total mortality: 0.99
